Measurements taken from patent publication US3989730A, “Bone-seeking technetium-99m complex” (priority 1973, dated 1976).
Read-outs that look alike come from different tables or passages of the source.

Conditions: for Blood, % Dose in Whole Organ / Blood, % dose / 1 % body weight / Bone Ave, % Dose/1 % Body weight / Femur, % dose / 1 % body weight / Kidneys, % Dose in Whole Organ / Kidneys, % dose / 1 % body weight / Liver, % Dose in Whole Organ / Liver, % dose / 1 % body weight / Marrow, % Dose in Whole Organ / Marrow, % dose / 1 % body weight / Muscle, % Dose in Whole Organ / Muscle, % dose / 1 % body weight / Pelvis, % dose / 1 % body weight / Spine, % dose / 1 % body weight / Tibia, % dose / 1 % body weight / Urine, % Dose / W. Femur, % Dose in Whole Organ / W. Tibia, % Dose in Whole Organ: 2 Hrs; for Ratio 99mTc/85Sr, Ave Bone / Ratio 99mTc/85Sr, Blood / Ratio 99mTc/85Sr, Femur / Ratio 99mTc/85Sr, Kidneys / Ratio 99mTc/85Sr, Liver / Ratio 99mTc/85Sr, Marrow / Ratio 99mTc/85Sr, Muscle / Ratio 99mTc/85Sr, Pelvis / Ratio 99mTc/85Sr, Spine / Ratio 99mTc/85Sr, Tibia: 2 hours

Substance: 99m technetium-tin-1-amino-ethane-1,1-diphosphonate [99mTc-Sn-AEDP]
- Blood, % Dose in Whole Organ (AEDP 0.01 mg/kg): 1.18 % Dose
- Blood, % dose / 1 % body weight (AEDP 0.01 mg/kg): 0.168 % Dose/1 % Body weight
- Bone Ave, % Dose/1 % Body weight (AEDP 0.01 mg/kg): 7.60 % Dose/1 % Body weight
- Femur, % dose / 1 % body weight (AEDP 0.01 mg/kg): 7.54 % Dose/1 % Body weight
- Kidneys, % Dose in Whole Organ (AEDP 0.01 mg/kg): 1.59 % Dose
- Kidneys, % dose / 1 % body weight (AEDP 0.01 mg/kg): 2.72 % Dose/1 % Body weight
- Liver, % Dose in Whole Organ (AEDP 0.01 mg/kg): 1.69 % Dose
- Liver, % dose / 1 % body weight (AEDP 0.01 mg/kg): 0.617 % Dose/1 % Body weight
- Marrow, % Dose in Whole Organ (AEDP 0.01 mg/kg): 0.657 % Dose
- Marrow, % dose / 1 % body weight (AEDP 0.01 mg/kg): 0.300 % Dose/1 % Body weight
- Muscle, % Dose in Whole Organ (AEDP 0.01 mg/kg): 0.988 % Dose
- Muscle, % dose / 1 % body weight (AEDP 0.01 mg/kg): 0.037 % Dose/1 % Body weight
- Pelvis, % dose / 1 % body weight (AEDP 0.01 mg/kg): 8.53 % Dose/1 % Body weight
- Spine, % dose / 1 % body weight (AEDP 0.01 mg/kg): 6.20 % Dose/1 % Body weight
- Tibia, % dose / 1 % body weight (AEDP 0.01 mg/kg): 8.13 % Dose/1 % Body weight
- Urine, % Dose (AEDP 0.01 mg/kg): 48.39 % Dose
- W. Femur, % Dose in Whole Organ (AEDP 0.01 mg/kg): 2.34 % Dose
- W. Tibia, % Dose in Whole Organ (AEDP 0.01 mg/kg): 1.96 % Dose
- Blood, % Dose in Whole Organ (AEDP 0.05 mg/kg): 1.01 % Dose
- Blood, % dose / 1 % body weight (AEDP 0.05 mg/kg): 0.144 % Dose/1 % Body weight
- Bone Ave, % Dose/1 % Body weight (AEDP 0.05 mg/kg): 8.39 % Dose/1 % Body weight
- Femur, % dose / 1 % body weight (AEDP 0.05 mg/kg): 8.63 % Dose/1 % Body weight
- Kidneys, % Dose in Whole Organ (AEDP 0.05 mg/kg): 1.13 % Dose
- Kidneys, % dose / 1 % body weight (AEDP 0.05 mg/kg): 1.83 % Dose/1 % Body weight
- Liver, % Dose in Whole Organ (AEDP 0.05 mg/kg): 0.806 % Dose
- Liver, % dose / 1 % body weight (AEDP 0.05 mg/kg): 0.176 % Dose/1 % Body weight
- Marrow, % Dose in Whole Organ (AEDP 0.05 mg/kg): 0.549 % Dose
- Marrow, % dose / 1 % body weight (AEDP 0.05 mg/kg): 0.250 % Dose/1 % Body weight
- Muscle, % Dose in Whole Organ (AEDP 0.05 mg/kg): 1.20 % Dose
- Muscle, % dose / 1 % body weight (AEDP 0.05 mg/kg): 0.028 % Dose/1 % Body weight
- Pelvis, % dose / 1 % body weight (AEDP 0.05 mg/kg): 7.82 % Dose/1 % Body weight
- Spine, % dose / 1 % body weight (AEDP 0.05 mg/kg): 7.80 % Dose/1 % Body weight
- Tibia, % dose / 1 % body weight (AEDP 0.05 mg/kg): 9.30 % Dose/1 % Body weight
- Urine, % Dose (AEDP 0.05 mg/kg): 44.21 % Dose
- W. Femur, % Dose in Whole Organ (AEDP 0.05 mg/kg): 2.41 % Dose
- W. Tibia, % Dose in Whole Organ (AEDP 0.05 mg/kg): 2.14 % Dose
- Blood, % Dose in Whole Organ (AEDP 0.1 mg/kg): 0.96 % Dose
- Blood, % dose / 1 % body weight (AEDP 0.1 mg/kg): 0.137 % Dose/1 % Body weight
- Bone Ave, % Dose/1 % Body weight (AEDP 0.1 mg/kg): 7.51 % Dose/1 % Body weight
- Femur, % dose / 1 % body weight (AEDP 0.1 mg/kg): 7.93 % Dose/1 % Body weight
- Kidneys, % Dose in Whole Organ (AEDP 0.1 mg/kg): 0.913 % Dose
- Kidneys, % dose / 1 % body weight (AEDP 0.1 mg/kg): 1.28 % Dose/1 % Body weight
- Liver, % Dose in Whole Organ (AEDP 0.1 mg/kg): 0.309 % Dose
- Liver, % dose / 1 % body weight (AEDP 0.1 mg/kg): 0.083 % Dose/1 % Body weight
- Marrow, % Dose in Whole Organ (AEDP 0.1 mg/kg): 0.211 % Dose
- Marrow, % dose / 1 % body weight (AEDP 0.1 mg/kg): 0.096 % Dose/1 % Body weight
- Muscle, % Dose in Whole Organ (AEDP 0.1 mg/kg): 1.46 % Dose
- Muscle, % dose / 1 % body weight (AEDP 0.1 mg/kg): 0.034 % Dose/1 % Body weight
- Pelvis, % dose / 1 % body weight (AEDP 0.1 mg/kg): 6.24 % Dose/1 % Body weight
- Spine, % dose / 1 % body weight (AEDP 0.1 mg/kg): 7.36 % Dose/1 % Body weight
- Tibia, % dose / 1 % body weight (AEDP 0.1 mg/kg): 8.50 % Dose/1 % Body weight
- Urine, % Dose (AEDP 0.1 mg/kg): 38.8 % Dose
- W. Femur, % Dose in Whole Organ (AEDP 0.1 mg/kg): 2.38 % Dose
- W. Tibia, % Dose in Whole Organ (AEDP 0.1 mg/kg): 2.18 % Dose
- Blood, % Dose in Whole Organ (AEDP 0.5 mg/kg): 1.38 % Dose
- Blood, % dose / 1 % body weight (AEDP 0.5 mg/kg): 0.197 % Dose/1 % Body weight
- Bone Ave, % Dose/1 % Body weight (AEDP 0.5 mg/kg): 6.96 % Dose/1 % Body weight
- Femur, % dose / 1 % body weight (AEDP 0.5 mg/kg): 6.59 % Dose/1 % Body weight
- Kidneys, % Dose in Whole Organ (AEDP 0.5 mg/kg): 1.11 % Dose
- Kidneys, % dose / 1 % body weight (AEDP 0.5 mg/kg): 2.11 % Dose/1 % Body weight
- Liver, % Dose in Whole Organ (AEDP 0.5 mg/kg): 0.216 % Dose
- Liver, % dose / 1 % body weight (AEDP 0.5 mg/kg): 0.079 % Dose/1 % Body weight
- Marrow, % Dose in Whole Organ (AEDP 0.5 mg/kg): 0.23 % Dose
- Marrow, % dose / 1 % body weight (AEDP 0.5 mg/kg): 0.104 % Dose/1 % Body weight
- Muscle, % Dose in Whole Organ (AEDP 0.5 mg/kg): 0.883 % Dose
- Muscle, % dose / 1 % body weight (AEDP 0.5 mg/kg): 0.021 % Dose/1 % Body weight
- Pelvis, % dose / 1 % body weight (AEDP 0.5 mg/kg): 7.93 % Dose/1 % Body weight
- Spine, % dose / 1 % body weight (AEDP 0.5 mg/kg): 6.05 % Dose/1 % Body weight
- Tibia, % dose / 1 % body weight (AEDP 0.5 mg/kg): 7.27 % Dose/1 % Body weight
- Urine, % Dose (AEDP 0.5 mg/kg): 48.85 % Dose
- W. Femur, % Dose in Whole Organ (AEDP 0.5 mg/kg): 1.74 % Dose
- W. Tibia, % Dose in Whole Organ (AEDP 0.5 mg/kg): 1.55 % Dose
- Ratio 99mTc/85Sr, Ave Bone (0.01 mg/kg): 0.735
- Ratio 99mTc/85Sr, Blood (0.01 mg/kg): 0.406
- Ratio 99mTc/85Sr, Femur (0.01 mg/kg): 0.720
- Ratio 99mTc/85Sr, Kidneys (0.01 mg/kg): 4.99
- Ratio 99mTc/85Sr, Liver (0.01 mg/kg): 3.00
- Ratio 99mTc/85Sr, Marrow (0.01 mg/kg): 1.27
- Ratio 99mTc/85Sr, Muscle (0.01 mg/kg): 0.338
- Ratio 99mTc/85Sr, Pelvis (0.01 mg/kg): 0.794
- Ratio 99mTc/85Sr, Spine (0.01 mg/kg): 0.689
- Ratio 99mTc/85Sr, Tibia (0.01 mg/kg): 0.710
- Ratio 99mTc/85Sr, Ave Bone (0.05 mg/kg): 0.683
- Ratio 99mTc/85Sr, Blood (0.05 mg/kg): 0.409
- Ratio 99mTc/85Sr, Femur (0.05 mg/kg): 0.687
- Ratio 99mTc/85Sr, Kidneys (0.05 mg/kg): 3.30
- Ratio 99mTc/85Sr, Liver (0.05 mg/kg): 1.32
- Ratio 99mTc/85Sr, Marrow (0.05 mg/kg): 1.18
- Ratio 99mTc/85Sr, Muscle (0.05 mg/kg): 0.236
- Ratio 99mTc/85Sr, Pelvis (0.05 mg/kg): 0.684
- Ratio 99mTc/85Sr, Spine (0.05 mg/kg): 0.675
- Ratio 99mTc/85Sr, Tibia (0.05 mg/kg): 0.681
- Ratio 99mTc/85Sr, Ave Bone (0.1 mg/kg): 0.716
- Ratio 99mTc/85Sr, Blood (0.1 mg/kg): 0.409
- Ratio 99mTc/85Sr, Femur (0.1 mg/kg): 0.714
- Ratio 99mTc/85Sr, Kidneys (0.1 mg/kg): 2.94
- Ratio 99mTc/85Sr, Liver (0.1 mg/kg): 0.490
- Ratio 99mTc/85Sr, Marrow (0.1 mg/kg): 0.621
- Ratio 99mTc/85Sr, Muscle (0.1 mg/kg): 0.205
- Ratio 99mTc/85Sr, Pelvis (0.1 mg/kg): 0.725
- Ratio 99mTc/85Sr, Spine (0.1 mg/kg): 0.705
- Ratio 99mTc/85Sr, Tibia (0.1 mg/kg): 0.721
- Ratio 99mTc/85Sr, Ave Bone (0.5 mg/kg): 0.644
- Ratio 99mTc/85Sr, Blood (0.5 mg/kg): 0.280
- Ratio 99mTc/85Sr, Femur (0.5 mg/kg): 0.628
- Ratio 99mTc/85Sr, Kidneys (0.5 mg/kg): 2.47
- Ratio 99mTc/85Sr, Liver (0.5 mg/kg): 0.459
- Ratio 99mTc/85Sr, Marrow (0.5 mg/kg): 0.500
- Ratio 99mTc/85Sr, Muscle (0.5 mg/kg): 0.140
- Ratio 99mTc/85Sr, Pelvis (0.5 mg/kg): 0.692
- Ratio 99mTc/85Sr, Spine (0.5 mg/kg): 0.614
- Ratio 99mTc/85Sr, Tibia (0.5 mg/kg): 0.632
